Our source for the Ki and IC50 values is patent US7514438B2, “Melanin concentrating hormone receptor antagonist” (Amgen, Inc., priority 2003, dated 2009).

Test [1] addresses T1, human MCH receptor (Homo sapiens, UniProt Q99705).
T1 construct: expressed in transfected cells
The test can be described thus: hMCH FLIPR calcium mobilization assay. The class given is cell-based.

The target in test [2] is T2, rat MCH 1 receptor (rMCH1R) (Rattus norvegicus, UniProt P97639).
T2 construct: expressed in transfected cells; host or cells: HEK 293 (membranes)
Kind of test: 125I-MCH ligand binding assay, rMCH. The conditions noted are these: HEK 293 membranes, 0.2 nM 125I native-MCH. In outline: (§1)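 HEK293 membranes expressing rat or human MCH1R (100 µg tissue) were incubated for 90 min at 30 °C with 0.2 nM 125I-native-MCH and test compound in HEPES/MgCl2/BSA buffer with protease inhibitors, pH 7.4. Non-specific binding used 1 µM cold MCH. Filter-bound radioactivity gave IC50 by nonlinear regression.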

The target of test [3] is T3, human MCH 1 receptor (hMCH1R) (Homo sapiens, UniProt Q99705).
T3 construct: expressed in transfected cells; host or cells: HEK 293 (membranes)
The test can be described thus: 125I-MCH ligand binding assay, hMCH. The note with it: HEK 293 membranes, 0.2 nM 125I native-MCH. The method in brief: as §1

Test [4] addresses T4, rat MCH1 receptor (Rattus norvegicus, UniProt P97639). The test can be described thus: HT-PS100 calcium mobilization functional assay. The test is classed as cell-based. Set-up: expressed in transfected cells.
Test [5] addresses T4, rat MCH1 receptor. The test can be described thus: rMCH FLIPR calcium mobilization assay (CHOK1-Gqi cells). Set-up: expressed in transfected cells; host or cells: CHOK1-Gqi. The class given is cell-based. The note with it: CHOK1-Gqi cells, rat MCH1 receptor. The method in brief: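 Fura-2-loaded CHOK1-Gqi cells expressing rat MCH1R read on FLIPR; agonist mode up to 1 μM; antagonist mode with 10 min pre-incubation (typically 1 μM) then MCH at 5-fold EC50; pA2 from linear regression of MCH EC50 shifts by 10-fold-spaced antagonist concentrations.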
Background: Calcium assays in cells follow changes in intracellular calcium, usually with a dye or a luminescent sensor.

Setting [6] is: 100 μM or less list, read-out: Ki in the hMCH FLIPR assay.
Where [7] appears, read: 100 μM or less list, read-out: IC50 in the rMCH binding assay.
Where [8] appears, read: 100 μM or less list, read-out: IC50 in the hMCH binding assay.
Setting [9] is: HEK 293 cells stably transfected with rat MCH1 receptor, 100 nM or less list, read-out: Ki in the HT-PS100 assay.
[10] abbreviates: 100 μM or less list, read-out: Ki in the rMCH FLIPR assay.
The mark [11] stands for this setting: 100 nM or less list, read-out: Ki in the hMCH FLIPR assay.
Where [12] appears, read: 100 nM or less list, read-out: IC50 in the hMCH binding assay.
The mark [13] stands for this setting: 100 nM or less list, read-out: IC50 in the rMCH binding assay.

pIC50, pKi: −log10 of the molar value. Read-outs that look alike come from different tables or passages of the source.

T2 sequence (P97639 whole entry): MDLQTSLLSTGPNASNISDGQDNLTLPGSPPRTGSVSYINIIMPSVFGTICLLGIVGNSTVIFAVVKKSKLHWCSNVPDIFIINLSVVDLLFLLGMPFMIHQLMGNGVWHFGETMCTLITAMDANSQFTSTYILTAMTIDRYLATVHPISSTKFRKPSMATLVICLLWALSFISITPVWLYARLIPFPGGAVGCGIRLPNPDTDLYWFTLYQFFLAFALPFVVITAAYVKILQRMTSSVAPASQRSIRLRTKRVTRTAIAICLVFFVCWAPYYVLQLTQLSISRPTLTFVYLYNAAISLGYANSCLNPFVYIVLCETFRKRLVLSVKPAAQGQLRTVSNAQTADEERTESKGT
T4 sequence (P97639 whole entry): as above
T1 sequence (Q99705 whole entry): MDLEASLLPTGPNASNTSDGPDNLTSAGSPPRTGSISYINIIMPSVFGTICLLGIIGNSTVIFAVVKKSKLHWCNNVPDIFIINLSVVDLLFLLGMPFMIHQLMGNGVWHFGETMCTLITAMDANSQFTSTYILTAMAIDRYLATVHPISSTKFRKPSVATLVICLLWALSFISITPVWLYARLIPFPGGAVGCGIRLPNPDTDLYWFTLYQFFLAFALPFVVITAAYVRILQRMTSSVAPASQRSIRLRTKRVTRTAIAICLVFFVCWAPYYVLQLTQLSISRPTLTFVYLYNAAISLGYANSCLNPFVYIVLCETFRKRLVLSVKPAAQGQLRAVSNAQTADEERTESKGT
T3 sequence (Q99705 whole entry): as above

With `Cc1cccc(C)c1-n1nnnc1[C@H](c1ccc2c(c1)OCO2)N1CCN(C/C=C/c2ccccc2)CC1` (racemic) [Compound 83, 1-{benzo[1,3]dioxol-5-yl-[1-(2,6-dimethylphenyl)-1H-tetrazol-5-yl]methyl}-4-(3-phenylallyl)piperazine], the results for the pKi in test [1] (setting [6]), in test [4] (setting [9]) and in test [5] (setting [10]) were no less than 4.00, no less than 7.00 and no less than 4.00, respectively. Besides, the pIC50 in test [2] (setting [7]) and in test [3] (setting [8]) was no less than 4.00 in each case.

Regarding `Cc1cccc(C)c1-n1nnnc1[C@H](c1ccc(Cl)cc1)N1CCN(C/C=C/c2ccccc2)CC1` (racemic) [Compound 57, 1-{(4-chlorophenyl)-[1-(2,6-dimethyiphenyl)-1H-tetrazol-5-yl]methyl}-4-(3-phenylallyl)piperazine], the figures for the pKi in test [1] (setting [6]), in test [4] (setting [9]) and in test [5] (setting [10]) were no less than 4.00, no less than 7.00 and no less than 4.00, respectively. Also, the pIC50 in test [2] (setting [7]) and in test [3] (setting [8]) was no less than 4.00 throughout.

In the case of `Cc1cccc(C)c1-n1nnnc1[C@H](c1ccccc1)N1CCN(C/C=C/c2ccccc2)CC1` (racemic) [Compound 4, 1-{[1-(2,6-dimethyiphenyl)-1H-tetrazol-5-yl]phenylmethyl}-4-(3-phenylallyl)piperazine], the pKi is no less than 7.00 in test [1] (setting [11]), no less than 4.00 in test [1] (setting [6]), no less than 7.00 in test [4] (setting [9]) and no less than 4.00 in test [5] (setting [10]). In addition, the negative logarithm of the IC50 (pIC50) is no less than 4.00 in test [2] (setting [7]), no less than 7.00 in test [3] (setting [12]) and no less than 4.00 in test [3] (setting [8]).

Take `Cc1cccc(C)c1-n1nnnc1[C@H](c1cccs1)N1CCN(C/C=C/c2ccccc2)CC1` (racemic) [Compound 53, 1-{[1-(2,6-dimethyiphenyl)-1H-tetrazol-5-yl]thiophen-2-ylmethyl}-4-(3-phenylallyl)piperazine]: the pKi in test [1] (setting [11]) is no less than 7.00; in test [1] (setting [6]), no less than 4.00; in test [4] (setting [9]) it was no less than 7.00; in test [5] (setting [10]) it was no less than 4.00. Moreover, the pIC50 in test [2] (setting [7]) and in test [3] (setting [8]) was no less than 4.00 in each case.

Regarding `Cc1cccc(C)c1-n1nnnc1[C@H](c1cccc(F)c1)N1CCN(C/C=C/c2ccccc2)CC1` (racemic) [Compound 48, 1-[[1-(2,6-dimethyiphenyl)-1H-tetrazol-5-yl]-(3-fluorophenyl)methyl]-4-(3-phenylallyl)piperazine], the pKi in test [1] (setting [11]) was no less than 7.00; in test [1] (setting [6]) it was no less than 4.00; in test [4] (setting [9]), no less than 7.00; in test [5] (setting [10]), no less than 4.00. Moreover, the pIC50 in test [2] (setting [7]) and in test [3] (setting [8]) was no less than 4.00 in each case.

For `Cc1cccc(C)c1-n1nnnc1[C@H](c1cccc(O)c1)N1CCN(C/C=C/c2ccccc2)CC1` (racemic) [Compound 82, 3-{[1-(2,6-dimethylphenyl)-1H-tetrazol-5-yl]-[4-(3-phenylallyl)piperazin-1-yl]methyl}phenol], the pKi in test [1] (Ki in the hMCH FLIPR assay, 100 nM or less list) was no less than 7.00; in test [1] (Ki in the hMCH FLIPR assay, 100 μM or less list), no less than 4.00; in test [4], no less than 7.00; in test [5] (Ki in the rMCH FLIPR assay, 100 μM or less list), no less than 4.00. In addition, the pIC50 is no less than 4.00 in test [2] (IC50 in the rMCH binding assay, 100 μM or less list) and no less than 4.00 in test [3] (IC50 in the hMCH binding assay, 100 μM or less list).

`Cc1cccc(C)c1-n1nnnc1[C@H](c1ccc(-n2ccnc2)cc1)N1CCN(C/C=C/c2ccccc2)CC1` (racemic) [Compound 78, 1-[[1-(2,6-dimethylphenyl)-1H-tetrazol-5-yl]-(4-imidazol-1-ylphenyl)methyl]-4-(3-phenylallyl)piperazine]: the pKi in test [1] (setting [6]) is no less than 4.00; in test [4] (setting [9]) it was no less than 7.00; in test [5] (setting [10]) it was no less than 4.00. The values for the pIC50 in test [2] (setting [7]), in test [3] (setting [12]) and in test [3] (setting [8]) were no less than 4.00, no less than 7.00 and no less than 4.00, respectively.

With `Cc1cccc(C)c1-n1nnnc1[C@H](c1cccc(OCCO)c1)N1CCN(C/C=C/c2ccccc2)CC1` (racemic) [Compound 84, 2-(3-{[1-(2,6-dimethylphenyl)-1H-tetrazol-5-yl]-[4-(3-phenylallyl)piperazin-1-yl]methyl}phenoxy)ethanol], the pKi in test [1] (setting [6]) is no less than 4.00; in test [4] (setting [9]), no less than 7.00; in test [5] (setting [10]), no less than 4.00. Also, the pIC50 was no less than 7.00 in test [2] (setting [13]), no less than 4.00 in test [2] (setting [7]), no less than 7.00 in test [3] (setting [12]) and no less than 4.00 in test [3] (setting [8]).

As for `Cc1ccc([C@@H](c2nnnn2-c2c(C)cccc2C)N2CCN(C/C=C/c3ccccc3)CC2)cc1` (racemic) [Compound 55, 1-{[1-(2,6-dimethyiphenyl)-1H-tetrazol-5-yl]-p-tolylmethyl]-4-(3-phenylallyl)piperazine], the pKi was no less than 7.00 in test [1] (setting [11]), no less than 4.00 in test [1] (setting [6]), no less than 7.00 in test [4] (setting [9]) and no less than 4.00 in test [5] (setting [10]). In addition, the values for the negative logarithm of the IC50 (pIC50) in test [2] (setting [7]), in test [3] (setting [12]) and in test [3] (setting [8]) were no less than 4.00, no less than 7.00 and no less than 4.00, respectively.

For `Cc1cccc(C)c1-n1nnnc1[C@H](c1cccc(C#N)c1)N1CCN(C/C=C/c2ccccc2)CC1` (racemic) [Compound 79, 3-{[1-(2,6-dimethylphenyl)-1H-tetrazol-5-yl]-[4-(3-phenylallyl)piperazin-1-yl]methyl}benzonitrile], the pKi in test [1] (setting [11]) is no less than 7.00; in test [1] (setting [6]), no less than 4.00; in test [4] (setting [9]), no less than 7.00; in test [5] (setting [10]), no less than 4.00. For the same compound, the pIC50 in test [2] (setting [13]) was no less than 7.00; in test [2] (setting [7]), no less than 4.00; in test [3] (setting [8]) it was no less than 4.00.

Consider `Cc1cccc(C)c1-n1nnnc1[C@H](c1cccc(C(F)(F)F)c1)N1CCN(C/C=C/c2ccccc2)CC1` (racemic) [Compound 56, 1-[[1-(2,6-dimethyiphenyl)-1H-tetrazol-5-yl]-(3-trifluoromethyiphenyl)methyl]-4-(3-phenylallyl)piperazine], for which the pKi is no less than 7.00 in test [1] (setting [11]); no less than 4.00 in test [1] (setting [6]); no less than 7.00 in test [4] (setting [9]); no less than 7.00 in test [5] (100 nM or less list, read-out: Ki in the rMCH FLIPR assay); no less than 4.00 in test [5] (setting [10]). Moreover, the pIC50 was no less than 7.00 in test [2] (setting [13]), no less than 4.00 in test [2] (setting [7]), no less than 7.00 in test [3] (setting [12]) and no less than 4.00 in test [3] (setting [8]).

By pKi is commonly meant −log10 of the Ki, conventionally taken in molar units. In general, pIC50 refers to −log10 of the IC50, conventionally taken in molar units.
